Consider 7 compounds from patent publication US4198504A, “[3-(Pyridinium)-7-(naphthyiridinyl carbonylamino)acetamido]cephalosporanic acid derivatives” (Bristol-Myers Company, priority 1978, dated 1980).

Read-outs that look alike come from different tables or passages of the source.

The test system of data set [1] is S. aureus. Nature of the data set: In vitro MIC, serial two-fold agar dilution, primary evaluation Gp (S. aureus, 6 strains). The settings on record: CBPC = 100%, geometric mean of MICs. The format is cell-based. The method in brief:
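Two-fold serial agar dilution on Mueller-Hinton agar (Steers' replicator); GP group is 6 S. aureus strains. Values are relative activity versus carbenicillin (set at 100%), calculated from the geometric mean of the group's MICs.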

Data set [2] has as its system Pseudomonas aeruginosa. Nature of the data set: In vitro MIC, serial two-fold agar dilution, secondary evaluation against Pseudomonas aeruginosa strains. The format is cell-based. To be noted: CBPC = 100%, geometric mean of MICs. The method in brief:
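Two-fold serial agar dilution on Mueller-Hinton agar (Steers' apparatus) against 64 P. aeruginosa strains. Values are relative activity versus carbenicillin set at 100%, based on geometric mean MICs.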

Data set [3] has as its system Pseudomonas aeruginosa A9843. Nature of the data set: In vivo efficacy, experimental infection in mice, intramuscular treatment, Pseudomonas aeruginosa A9843. To be noted: A9843, im, 120 h, read-out: PD50 Pseudomonas aeruginosa A9843. Also noted: species or system Pseudomonas aeruginosa (infected mice). The method, then:
(§1) The in vivo efficacy was evaluated by intramuscular treatment against three kinds of experimental infection in mice.
(§2) The in vivo tests were carried out using the following three pathogenic organisms:
Pseudomonas aeruginosa A9843
(§3) Mice were challenged intraperitoneally with approximately a 100×LD50 dose of the pathogens in a 5% mucin suspension. The mice were treated with test compound by I.M. route immediately after the bacterial challenge.

Data set [4] can be described thus: Antibiotic blood levels in mice following intramuscular administration (paper disc-agar diffusion, Escherichia coli NIHJ as assay organism). It is filed as in vivo. To be noted: mouse, im, I.M., 20 mg./kg.; for half-life: read-out: Blood level, Half-life; for Cmax: read-out: Blood level, Peak Concentration. The method, then:
Antibiotic blood levels were determined in mice following intramuscular administration of the test compounds at 20 mg./kg. The blood samples were collected from the orbital sinuses into heparinized capillary tubes at 15, 30, 60 and 120 minutes after administration. The antibiotic concentration was determined by the paper disc-agar diffusion method using Escherichia coli NIHJ as the assay organism.
On the technique in general: In agar diffusion tests the substance spreads into inoculated agar from a disc or well.

The test system of data set [5] is Escherichia coli Juhl. Description: In vivo efficacy, experimental infection in mice, intramuscular treatment, Escherichia coli Juhl. Also noted: species or system Escherichia coli (infected mice). The settings on record: im, 120 h, read-out: PD50 Escherichia coli Juhl. How it is done: as §1, §2, §3
For data set [6], the system named is Ent. cloacae (3), Pr. vulgaris (1), Pr. morganii (1), S. marcescen (1). Nature of the data set: In vitro MIC, serial two-fold agar dilution, primary evaluation Gn-II (Ent. cloacae, Pr. vulgaris, Pr. morganii, S. marcescens). To be noted: CBPC = 100%, geometric mean of MICs. It is filed as cell-based. The method in brief:
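MICs by two-fold serial agar dilution on Mueller-Hinton agar with a Steers replicator. Reported as activity relative to carbenicillin set at 100%, computed from geometric mean MICs over the strains in each group.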
Background: In agar dilution the substance is mixed into plates at graded concentrations.

Data set [7] has as its system Staphylococcus aureus Smith. Nature of the data set: In vivo efficacy, experimental infection in mice, intramuscular treatment, Staphylococcus aureus Smith. Also noted: species or system Staphylococcus aureus (infected mice). The settings on record: im, 120 h, read-out: PD50 Staphylococcus aureus Smith. How it is done: as §1, §2
Staphylococcus aureus Smith
as §3

The subject of data set [8] is Ps. aeruginosa. Nature of the data set: In vitro MIC, serial two-fold agar dilution, primary evaluation Ps (6 strains). To be noted: CBPC = 100%, geometric mean of MICs. It is filed as cell-based. The method in brief: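 MIC by serial two-fold agar dilution on Mueller-Hinton agar (Steers' apparatus) against 6 Pseudomonas aeruginosa strains in primary screening. Values expressed as relative activity versus carbenicillin set at 100%, based on geometric mean MIC.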

Data set [9] deals with E. coli (9), Klebsiella sp. (2), Pr. mirabilis (1), Sal. enteritidis (1). Description: In vitro MIC, serial two-fold agar dilution, primary evaluation Gn-I (E. coli, Klebsiella sp., Pr. mirabilis, Sal. enteritidis). It is filed as cell-based. To be noted: CBPC = 100%, geometric mean of MICs. The method in brief:
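Two-fold serial agar dilution on Mueller-Hinton agar, inoculated with a Steers' replicator. Activity is expressed relative to carbenicillin set at 100%. Values are based on the geometric mean MIC per organism group.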

Where [10] appears, read: I.M., 100×LD50 challenge i.p., 5 days.

Regarding `O=C(O)Cc1cc[n+](CC2=C(C(=O)[O-])N3C(=O)C(NC(=O)[C@H](NC(=O)c4cnc5cccnc5c4O)c4ccc(O)cc4)C3SC2)cc1` (stereo partly drawn) [BB-S591, 7-[D-α-(4-Hydroxy-1,5-naphthyridine-3-carboxamido)-α-(4-hydroxyphenyl)acetamido]-3-(4-carboxymethylpyridinium)methyl-3-cephem-4-carboxylate], the “In vitro relative activity, primary evaluation Gp (6)” value in [1] (Mueller-Hinton agar) is on record as 31%. For the same compound, the “In vitro relative activity, secondary, Pseudomonas aeruginosa (61-64)” value (“In vitro relative activity, secondary” for short) in [2] (61-64 strains) was 1160%. In addition, the ED50 in data set [3] (setting [10]) worked out at 12.5 mg/kg; in data set [5] (setting [10]), 6.25 mg/kg; in [7] (setting [10]), 6.15 mg/kg. The half-life – broadly, the time needed for the level to fall by half in the phase considered – in data set [4] amounted to 54 min. The Cmax in [4] is 11000 ng/mL. In [6] (Mueller-Hinton agar), the “In vitro relative activity, primary evaluation Gn-II (6)” value turned out to be 18%. In addition, the “In vitro relative activity, primary evaluation Ps (6)” value in data set [8] (Mueller-Hinton agar) turned out to be 883%. In data set [9] (Mueller-Hinton agar), the “In vitro relative activity, primary evaluation Gn-I (13)” value (from here on “In vitro relative activity … (13)”) was 167%.
With `O=C([O-])C1=C(C[n+]2cccc(C(=O)O)c2)CSC2C(NC(=O)[C@H](NC(=O)c3cnc4cccnc4c3O)c3ccc(O)c(Cl)c3)C(=O)N12` (stereo partly drawn) [BB-S600, 7-[D-α-(4-Hydroxy-1,5-naphthyridine-3-carboxamido)-α-(3-chloro-4-hydroxyphenyl)acetamido]-3-(3-carboxypyridinium)-methyl-3-cephem-4-carboxylate], the “In vitro relative activity, primary evaluation Gp (6)” value in data set [1] (Mueller-Hinton agar) was found to be 70%. For the same compound, the “In vitro relative activity, secondary” value in data set [2] (61-64 strains) is 2500%. Further, the ED50 is 6.2 mg/kg in [3] (setting [10]), 2.2 mg/kg in data set [5] (setting [10]) and 2 mg/kg in [7] (setting [10]). Besides, in data set [4], the half-life worked out at 70 min. The Cmax in data set [4] came to 6200 ng/mL. Further, the “In vitro relative activity, primary evaluation Gn-II (6)” value in [6] (Mueller-Hinton agar) turned out to be 30%. Besides, the “In vitro relative activity, primary evaluation Ps (6)” value in data set [8] (Mueller-Hinton agar) is on record as 2340%. In [9] (Mueller-Hinton agar), the “In vitro relative activity … (13)” value turned out to be 107%.
For the compound `O=C(O)C=Cc1ccc[n+](CC2=C(C(=O)[O-])N3C(=O)C(NC(=O)[C@H](NC(=O)c4cnc5cccnc5c4O)c4ccc(O)c(Cl)c4)C3SC2)c1` (stereo partly drawn) [BB-S602, 7-[D-α-(4-Hydroxy-1,5-naphthyridine-3-carboxamido)-α-(3-chloro-4-hydroxyphenyl)acetamido]-3-(3-carboxyvinylpyridinium)-methyl-3-cephem-4-carboxylate], the “In vitro relative activity, primary evaluation Gp (6)” value in [1] (Mueller-Hinton agar) worked out at 58%. Moreover, the “In vitro relative activity, secondary” value in data set [2] (61-64 strains) is 1530%. The ED50 in data set [3] (setting [10]) is 8.4 mg/kg; in [5] (setting [10]), 1.4 mg/kg; in data set [7] (setting [10]), 0.8 mg/kg. The half-life in data set [4] was found to be 60 min. The Cmax in [4] was 8000 ng/mL. In data set [6] (Mueller-Hinton agar), the “In vitro relative activity, primary evaluation Gn-II (6)” value was 63%. Also, the “In vitro relative activity, primary evaluation Ps (6)” value in data set [8] (Mueller-Hinton agar) came to 2080%. In addition, in data set [9] (Mueller-Hinton agar), the “In vitro relative activity … (13)” value came out at 94%.
Consider `O=C(O)Cc1ccc[n+](CC2=C(C(=O)[O-])N3C(=O)C(NC(=O)[C@H](NC(=O)c4cnc5cccnc5c4O)c4ccc(O)c(Cl)c4)C3SC2)c1` (stereo partly drawn) [BB-S604, 7-[D-α-(4-Hydroxy-1,5-naphthyridine-3-carboxamido)-α-(3-chloro-4-hydroxyphenyl)acetamido]-3-(3-carboxymethylpyridinium)-methyl-3-cephem-4-carboxylate], for which the “In vitro relative activity, primary evaluation Gp (6)” value in [1] (Mueller-Hinton agar) came to 50%. Also, in [2] (61-64 strains), the “In vitro relative activity, secondary” value is 2030%. Besides, the values for the ED50 in [3] (setting [10]), in data set [5] (setting [10]) and in [7] (setting [10]) were 6.2 mg/kg, 2.4 mg/kg and 2.5 mg/kg, respectively. Besides, the half-life in [4] worked out at 56 min. Moreover, the Cmax in data set [4] amounted to 10500 ng/mL. The “In vitro relative activity, primary evaluation Gn-II (6)” value in [6] (Mueller-Hinton agar) turned out to be 45%. Besides, in data set [8] (Mueller-Hinton agar), the “In vitro relative activity, primary evaluation Ps (6)” value amounted to 1450%. In addition, in data set [9] (Mueller-Hinton agar), the “In vitro relative activity … (13)” value came to 94%.
As for `O=C(O)C=Cc1ccc[n+](CC2=C(C(=O)[O-])N3C(=O)C(NC(=O)[C@H](NC(=O)c4cnc5cccnc5c4O)c4ccc(O)cc4)C3SC2)c1` (stereo partly drawn) [BB-S589, 7-[D-α-(4-Hydroxy-1,5-naphthyridine-3-carboxamido)-α-(4-hydroxyphenyl)acetamido]-3-[3-(2-carboxyvinyl)pyridinium]methyl-3-cephem-4-carboxylate], the results for the “In vitro relative activity, primary evaluation Gp (6)” value in [1] (Mueller-Hinton agar) and in data set [1] (Lot 2) were 56% and 45%, respectively. Also, the “In vitro relative activity, secondary” value in data set [2] (61-64 strains) amounted to 1880%; in data set [2] (Lot 2), 2970%. For the same compound, the ED50 in data set [3] (setting [10]) was found to be 4 mg/kg; in data set [3] (Lot 2, I.M.) it was 3.2 mg/kg; in [5] (Lot 2, I.M.) it was 1.9 mg/kg; in data set [7] (Lot 2, I.M.) it was 3.7 mg/kg. For the same compound, in data set [4], the half-life was determined as 60 min. For the same compound, the Cmax in [4] was determined as 7000 ng/mL. The “In vitro relative activity, primary evaluation Gn-II (6)” value in data set [6] (Mueller-Hinton agar) is on record as 14%; in data set [6] (Lot 2), 44%. Besides, the “In vitro relative activity, primary evaluation Ps (6)” value in data set [8] (Mueller-Hinton agar) is 1449%; in data set [8] (Lot 2) it was 2900%. For the same compound, the “In vitro relative activity … (13)” value amounted to 146% in data set [9] (Mueller-Hinton agar) and 107% in data set [9] (Lot 2).
On to `O=C([O-])C1=C(C[n+]2ccc(CCS(=O)(=O)O)cc2)CSC2C(NC(=O)[C@H](NC(=O)c3cnc4cccnc4c3O)c3ccc(O)cc3)C(=O)N12` (stereo partly drawn) [BB-S588, 7-[D-α-(4-Hydroxy-1,5-naphthyridine-3-carboxamido)-α-(4-hydroxyphenyl)acetamido]-3-(4-sulfoethylpyridinium)methyl-3-cephem-4-carboxylate], for which the “In vitro relative activity, primary evaluation Gp (6)” value in data set [1] (Mueller-Hinton agar) is recorded as 45%. The “In vitro relative activity, secondary” value in [2] (61-64 strains) amounted to 2030%. For the same compound, the results for the ED50 in [3] (setting [10]), in data set [5] (setting [10]) and in data set [7] (setting [10]) were 6.8 mg/kg, 1.56 mg/kg and 5 mg/kg, respectively. The half-life in [4] stood at 59 min. Also, the Cmax in data set [4] was determined as 4400 ng/mL. In data set [6] (Mueller-Hinton agar), the “In vitro relative activity, primary evaluation Gn-II (6)” value turned out to be 45%. Also, the “In vitro relative activity, primary evaluation Ps (6)” value in [8] (Mueller-Hinton agar) amounted to 1767%. In [9] (Mueller-Hinton agar), the “In vitro relative activity … (13)” value was found to be 350%.
As for `O=C([O-])C1=C(C[n+]2cccc(C(=O)O)c2)CSC2C(NC(=O)[C@H](NC(=O)c3cnc4cccnc4c3O)c3ccc(O)c(O)c3)C(=O)N12` (stereo partly shown) [BB-S608], the “In vitro relative activity, primary evaluation Gp (6)” value in [1] (Mueller-Hinton agar) is 13%. The “In vitro relative activity, secondary” value in [2] (61-64 strains) worked out at 1207%. The values for the ED50 in [3] (setting [10]), in data set [5] (setting [10]) and in data set [7] (setting [10]) were 2.4 mg/kg, 1.4 mg/kg and 8.5 mg/kg, respectively. In data set [4], the half-life worked out at 50 min. Also, the Cmax in [4] was found to be 8500 ng/mL. Besides, the “In vitro relative activity, primary evaluation Gn-II (6)” value in data set [6] (Mueller-Hinton agar) worked out at 14%. For the same compound, the “In vitro relative activity, primary evaluation Ps (6)” value in data set [8] (Mueller-Hinton agar) is on record as 975%. In [9] (Mueller-Hinton agar), the “In vitro relative activity … (13)” value is 53%.
